Patent US20100081632A1, “High-content and high throughput assays for identification of lipid-regulating pathways, and novel therapeutic agents for lipid disorders” (Odyssey Thera, Inc., priority 2008, published 2010)

Tested on: HepG2 cells
Test: LDL uptake in HepG2 cells (human LDL conjugated to DyLight 549)
Format: cell-based
Conditions: for x-fold increase (hepatic LDL uptake): HepG2
Excerpt: The assay uses human LDL conjugated to DyLight™ 549 as a fluorescent probe for detection of LDL uptake into HepG2 cells.
We assessED whether compounds that inhibit the PCSK9/LDLr assay would have activity on LDL uptake and metabolism in a relevant cell type. PCSK9 is thought to be a negative regulator of LDLr. Thus, we predicted that compounds inhibiting the PCSK9 PCA signal would increase LDL receptor expression and LDL uptake. An assay using human LDL conjugated to DyLight™ 549 as a fluorescent probe for detection of LDL uptake into cultured human hepatocytes. A separate assay, using an LDL receptor-specific polyclonal antibody and a DyLight™ 488-conjugated secondary antibody, was also performed to localize LDL receptors
Quantitation of the increased LDL uptake of these and other kinase inhibitors targeting Akt, mTOR, p38, GSK3 and VEGF is shown in Table 4.

O=c1cc(N2CCNCC2)oc2c(-c3ccccc3)cccc12 [LY 303511]
x-fold increase (LDL uptake in Hepg2 cells) (dose 3 μM): 1.4 x-fold | x-fold increase (LDL uptake in Hepg2 cells) (dose 30 μM): 2.1 x-fold | x-fold increase (hepatic LDL uptake) (dose 30 µM): 2.1 x-fold | x-fold increase (hepatic LDL uptake) (dose 3 µM): 1.4 x-fold

C[S+]([O-])c1ccc(-c2nc(-c3ccc(F)cc3)c(-c3ccncc3)[nH]2)cc1 (stereo not shown) [SB 203580]
x-fold increase (LDL uptake in Hepg2 cells) (dose 3 μM): 3.0 x-fold | x-fold increase (hepatic LDL uptake) (dose 3 µM): 3.0 x-fold

O=C1NC(=O)C(c2ccccc2[N+](=O)[O-])=C1Nc1ccc(O)c(Cl)c1 [SB 415286]
x-fold increase (LDL uptake in Hepg2 cells) (dose 25 μM): 1.6 x-fold | x-fold increase (hepatic LDL uptake) (dose 25 µM): 1.6 x-fold

CS(=O)(=O)CCNCc1ccc(-c2ccc3ncnc(Nc4ccc(OCc5cccc(F)c5)c(Cl)c4)c3c2)o1 [Lapatinib]
effect on LDL uptake (in words) (HepG2, 10 μM): dramatic increase in LDL uptake | x-fold increase (LDL uptake in Hepg2 cells) (dose 10 μM): 1.8 x-fold | x-fold increase (hepatic LDL uptake) (dose 10 µM): 1.8 x-fold | x-fold increase (LDL uptake in Hepg2 cells) (dose 30 μM): 1.9 x-fold | x-fold increase (hepatic LDL uptake) (dose 30 µM): 1.9 x-fold

CCN(CC)CCCCN1c2ccccc2Oc2ccc(Cl)cc21.Cl [Akt Inhibitor X, 10-(4′-(N-diethylamino)butyl)-2-chlorophenoxazine, HCl]
x-fold increase (LDL uptake in Hepg2 cells) (dose 1 μM): 1.4 x-fold | x-fold increase (hepatic LDL uptake) (dose 1 µM): 1.4 x-fold | x-fold increase (LDL uptake in Hepg2 cells) (dose 3 μM): 1.7 x-fold | x-fold increase (hepatic LDL uptake) (dose 3 µM): 1.7 x-fold

COc1cc2ncnc(Nc3cccc(Br)c3)c2cc1OC [PD-153035]
x-fold increase (LDL uptake in Hepg2 cells) (dose 0.2 μM): 1.3 x-fold | x-fold increase (hepatic LDL uptake) (dose 0.2 µM): 1.3 x-fold

CNc1cc2c(Nc3cccc(Br)c3)ncnc2cn1 [PD-158780]
x-fold increase (LDL uptake in Hepg2 cells) (dose 0.3 μM): 1.3 x-fold | x-fold increase (hepatic LDL uptake) (dose 0.3 µM): 1.3 x-fold

Oc1ccc(-c2nc(-c3ccc(F)cc3)c(-c3ccncc3)[nH]2)cc1 [SB 202190]
x-fold increase (LDL uptake in Hepg2 cells) (dose 1 μM): 2.7 x-fold | x-fold increase (hepatic LDL uptake) (dose 1 µM): 2.7 x-fold

CCc1cc(-c2oncc2-c2ccc(OC)cc2)c(O)cc1OC [KRIBB3]
x-fold increase (LDL uptake in Hepg2 cells) (dose 1 μM): 1.3 x-fold | x-fold increase (hepatic LDL uptake) (dose 1 µM): 1.3 x-fold | x-fold increase (LDL uptake in Hepg2 cells) (dose 3 μM): 1.6 x-fold | x-fold increase (hepatic LDL uptake) (dose 3 µM): 1.6 x-fold

B1: Oncostatin M (OSM): regulator of hepatic LDL uptake, purported target Gp130/OSMR/LIFR (protein, UniProt P13725 26-221, looked up)
Oncostatin-M: AAIGSCSKEYRVLLGQLQKQTDLMQDTSRLLDPYIRIQGLDVPKLREHCRERPGAFPSEETLRGLGRRGFLQTLNATLGCVLHRLADLEQRLPKAQDLERSGLNIEDLEKLQMARPNILGLRNNIYCMAQLLDNSDTAEPTKAGRGASQPPTPTPASDAFQRKLEGCRFLHGYHRFMHSVGRVFSKWGESPNRSRR
x-fold increase (hepatic LDL uptake) (dose 30 ng/ml): 4.2 x-fold
